Source: patent US20060069132A1, “Azolecarboxamide herbicides” (priority 2004, published 2006)

Assays:
barnyardgrass [1] = experiment: Test A pre-/postemergence herbicide test; type: in vivo, Echinochloa crus-galli
How it was run: (§1)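 Visual injury scores on a 0–100 scale (100 = complete control) taken about ten days post-treatment in greenhouse against untreated controls; dash means no result. Treatments: preemergence soil spray and postemergence spray to runoff on one- to two-leaf plants 2 to 10 cm tall, surfactant-containing formulation.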

large crabgrass [2] = experiment: Test A pre-/postemergence herbicide test; type: in vivo, Digitaria sanguinalis
How it was run: as §1

giant foxtail [3] = experiment: Test A pre-/postemergence herbicide test; type: in vivo, Setaria faberi
How it was run: as §1

morningglory [4] = experiment: Test A pre-/postemergence herbicide test; type: in vivo, Ipomoea spp.
How it was run: as §1

redroot pigweed = experiment: Test A pre-/postemergence herbicide test; type: in vivo, Amaranthus retroflexus
How it was run: as §1

velvetleaf [5] = experiment: Test A pre-/postemergence herbicide test; type: in vivo, Abutilon theophrasti
How it was run: as §1

barnyardgrass [6] = experiment: Test B pre-/postemergence herbicide test; type: in vivo, Echinochloa crus-galli
How it was run: (§2)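 Flooded paddy rice and barnyardgrass were treated at the 2-leaf stage; upland plantings received compound either on sown seed or on 1- to 4-leaf seedlings. All were kept 13–15 days in a greenhouse and scored visually, 0–100, relative to untreated plants.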

Surinam grass = experiment: Test B pre-/postemergence herbicide test; type: in vivo, Urochloa decumbens
How it was run: (§3)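 Greenhouse pot assay with simultaneous preemergence (treated seed) and postemergence (2–18 cm seedlings) applications of surfactant-containing, non-phytotoxic solvent formulations. Response scored visually 13–15 days later on a 0–100 scale, 100 meaning complete control.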

cocklebur = experiment: Test B pre-/postemergence herbicide test; type: in vivo, Xanthium strumarium
How it was run: as §2

corn = experiment: Test B pre-/postemergence herbicide test; type: in vivo, Zea mays
How it was run: as §3

large crabgrass [7] = experiment: Test B pre-/postemergence herbicide test; type: in vivo, Digitaria sanguinalis
How it was run: as §3

giant foxtail [8] = experiment: Test B pre-/postemergence herbicide test; type: in vivo, Setaria faberi
How it was run: as §3

lambsquarters = experiment: Test B pre-/postemergence herbicide test; type: in vivo, Chenopodium album
How it was run: as §3

morningglory [9] = experiment: Test B pre-/postemergence herbicide test; type: in vivo, Ipomoea coccinea
How it was run: as §2

pigweed = experiment: Test B pre-/postemergence herbicide test; type: in vivo, Amaranthus retroflexus
How it was run: as §3

velvetleaf [10] = experiment: Test B pre-/postemergence herbicide test; type: in vivo, Abutilon theophrasti
How it was run: as §3

blackgrass = experiment: Test B postemergence herbicide test; type: in vivo, Alopecurus myosuroides; details: scale 0 (no effect) to 100 (complete control)
How it was run: (§4)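 After treating 2-leaf paddy plants or 2–18 cm postemergence plants (1 to 4 leaves) with formulated chemical, researchers kept them in a greenhouse for 13–15 days. Effects were judged visually versus controls: 0 indicates none, 100 total control.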

wheat = experiment: Test B postemergence herbicide test; type: in vivo, Triticum aestivum; set-up: key to Wheat plant response rating: 0 = no effect, 100 = complete control; details: scale 0 (no effect) to 100 (complete control)
How it was run: (§5)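 Treated at 2-leaf (paddy) or 1–4-leaf, 2–18 cm (postemergence); greenhouse 13–15 d; visual score vs control, 0 none to 100 complete control; dash = not tested.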

wild oat = experiment: Test B postemergence herbicide test; type: in vivo, Avena fatua; details: scale 0 (no effect) to 100 (complete control)
How it was run: as §5

rice = experiment: Test B flooded paddy test; type: in vivo, Oryza sativa; details: 1000 g ai/ha, visual rating, scale 0 to 100 (0 no effect, 100 complete control), 13 to 15 days
How it was run: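 Greenhouse test; postemergence application to plants at 1–4 leaves (2–18 cm); paddy species at 2 leaves; evaluated visually vs controls at 13–15 days; scale 0–100 (100 = complete control).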

[11] = test system: small flower umbrella sedge; experiment: Test B flooded paddy test; type: in vivo, Cyperus difformis; details: 1000 g ai/ha, visual rating, scale 0 to 100 (0 no effect, 100 complete control), 13 to 15 days
How it was run: as §4

ducksalad = experiment: Test B flooded paddy test; type: in vivo, Heteranthera limosa; details: 1000 g ai/ha, visual rating, scale 0 to 100 (0 no effect, 100 complete control), 13 to 15 days
How it was run: as §4

barnyardgrass [12] = experiment: Test B flooded paddy test; type: in vivo, Echinochloa crus-galli; details: 1000 g ai/ha, visual rating, scale 0 to 100 (0 no effect, 100 complete control), 13 to 15 days
How it was run: as §4

[13] = Postemergence, 500 g ai/ha, 0 to 100 scale, 0 no effect, 100 complete control
[14] = Postemergence, 2000 g ai/ha, 0 to 100 scale, 0 no effect, 100 complete control
[15] = Preemergence, 500 g ai/ha, visual rating, 0 to 100 scale (0 no effect, 100 complete control)
[16] = Preemergence, 2000 g ai/ha, visual rating, 0 to 100 scale (0 no effect, 100 complete control)
[17] = 500 g ai/ha, visual rating 0-100, 0 no effect, 100 complete control, preemergence
[18] = Postemergence, 500 g ai/ha, visual rating after 13 to 15 days, scale 0 (no effect) to 100 (complete control)
[19] = postemergence, 125 g ai/ha, visual rating, scale 0 (no effect) to 100 (complete control)
[20] = preemergence, 125 g ai/ha, 0 to 100 scale, 0 is no effect, 100 is complete control
[21] = Postemergence, 500 g ai/ha, visual rating after 13 to 15 days
[22] = postemergence, 125 g ai/ha, visual rating

For CC(=NO)c1cccc(NC(=O)c2cc(C(C)(C)C)nn2C)c1 [Compound 107], the “Barnyardgrass plant response rating” value (barnyardgrass [1]; [13]) was 20, the “Plant response rating, Barnyardgrass” value (barnyardgrass [1]; [14]) was 55 and the “Barnyardgrass plant response rating” value (barnyardgrass [1]; [15]) was 0. For the same molecule, the “Barnyardgrass plant response rating” value (barnyardgrass [1]; [16]) was 35, the “Crabgrass, Large plant response rating” value (large crabgrass [2]; [13]) was 25 and the “Plant response rating, Crabgrass, Large” value (large crabgrass [2]; [14]) was 40. For the same molecule, the “Crabgrass, Large plant response rating” value (large crabgrass [2]; [15]) was 65, the “Crabgrass, Large plant response rating” value (large crabgrass [2]; [16]) was 90 and the “Foxtail, Giant plant response rating” value (giant foxtail [3]; [13]) was 20. The “Plant response rating, Foxtail, Giant” value (giant foxtail [3]; [14]) was 35, the “Foxtail, Giant plant response rating” value (giant foxtail [3]; [15]) was 10 and the “Foxtail, Giant plant response rating” value (giant foxtail [3]; [16]) was 80. The “Morningglory plant response rating” value (morningglory [4]; [13]) was 30, the “Plant response rating, Morningglory” value (morningglory [4]; [14]) was 40 and the “Morningglory plant response rating” value (morningglory [4]; [15]) was 95. The “Morningglory plant response rating” value (morningglory [4]; [16]) was 100, the “Pigweed plant response rating” value (redroot pigweed; [13]) was 95 and the “Plant response rating, Pigweed” value (redroot pigweed; [14]) was 100. The “Pigweed plant response rating” value (redroot pigweed; [15]) was 35, the “Pigweed plant response rating” value (redroot pigweed; [16]) was 95 and the “Velvetleaf plant response rating” value (velvetleaf [5]; [13]) was 0. For the same molecule, the “Plant response rating, Velvetleaf” value (velvetleaf [5]; [14]) was 0, the “Velvetleaf plant response rating” value (velvetleaf [5]; [15]) was 0 and the “Velvetleaf plant response rating” value (velvetleaf [5]; [16]) was 0. For the same molecule, the “Plant response rating, Barnyardgrass” value (barnyardgrass [6]; [17]) was 0, the “Plant response rating, Barnyardgrass” value (barnyardgrass [6]; [18]) was 0 and the “Barnyardgrass plant response rating” value (barnyardgrass [6]; [19]) was 0. The “Plant response rating, Barnyardgrass” value (barnyardgrass [6]; [20]) was 0, the “Plant response rating, Surinam Grass” value (Surinam grass; [17]) was 10 and the “Plant response rating, Surinam Grass” value (Surinam grass; [18]) was 10. The “Surinam Grass plant response rating” value (Surinam grass; [19]) was 10, the “Plant response rating, Surinam Grass” value (Surinam grass; [20]) was 0 and the “Plant response rating, Cocklebur” value (cocklebur; [17]) was 0. For the same molecule, the “Plant response rating, Cocklebur” value (cocklebur; [18]) was 0, the “Cocklebur plant response rating” value (cocklebur; [19]) was 0 and the “Plant response rating, Cocklebur” value (cocklebur; [20]) was 0. For the same molecule, the “Plant response rating, Corn” value (corn; [17]) was 0, the “Plant response rating, Corn” value (corn; [18]) was 0 and the “Corn plant response rating” value (corn; [19]) was 0. For the same molecule, the “Plant response rating, Corn” value (corn; [20]) was 0, the “Plant response rating, Crabgrass, Large” value (large crabgrass [7]; [17]) was 10 and the “Plant response rating, Crabgrass, Large” value (large crabgrass [7]; [18]) was 0. For the same molecule, the “Crabgrass, Large plant response rating” value (large crabgrass [7]; [19]) was 0, the “Plant response rating, Crabgrass, Large” value (large crabgrass [7]; [20]) was 0 and the “Plant response rating, Foxtail, Giant” value (giant foxtail [8]; [17]) was 0. The “Plant response rating, Foxtail, Giant” value (giant foxtail [8]; [18]) was 0, the “Foxtail, Giant plant response rating” value (giant foxtail [8]; [19]) was 0 and the “Plant response rating, Foxtail, Giant” value (giant foxtail [8]; [20]) was 0. For the same molecule, the “Plant response rating, Lambsquarters” value (lambsquarters; [17]) was 30, the “Plant response rating, Lambsquarters” value (lambsquarters; [18]) was 20 and the “Lambsquarters plant response rating” value (lambsquarters; [19]) was 10. The “Plant response rating, Lambsquarters” value (lambsquarters; [20]) was 0, the “Plant response rating, Morningglory” value (morningglory [9]; [17]) was 10 and the “Plant response rating, Morningglory” value (morningglory [9]; [18]) was 0. The “Morningglory plant response rating” value (morningglory [9]; [19]) was 0, the “Plant response rating, Morningglory” value (morningglory [9]; [20]) was 0 and the “Plant response rating, Pigweed” value (pigweed; [17]) was 0. The “Plant response rating, Pigweed” value (pigweed; [18]) was 10, the “Pigweed plant response rating” value (pigweed; [19]) was 0 and the “Plant response rating, Pigweed” value (pigweed; [20]) was 0. The “Plant response rating, Velvetleaf” value (velvetleaf [10]; [17]) was 0, the “Plant response rating, Velvetleaf” value (velvetleaf [10]; [18]) was 0 and the “Velvetleaf plant response rating” value (velvetleaf [10]; [19]) was 0. The “Plant response rating, Velvetleaf” value (velvetleaf [10]; [20]) was 0, the “Plant response rating, Blackgrass” value (blackgrass; [21]) was 0 and the “Blackgrass plant response rating” value (blackgrass; [22]) was 0. For the same molecule, the “Plant response rating, Wheat” value (wheat; [21]) was 0, the “Wheat plant response rating” value (wheat; [22]) was 0 and the “Plant response rating, Oat, Wild” value (wild oat; [21]) was 0. The “Oat, Wild plant response rating” value (wild oat; [22]) was 0, the “Rice plant response rating” value (rice) was 0 and the “Sedge, Umbrella plant response rating” value [11] was 60. For the same molecule, the “Ducksalad plant response rating” value (ducksalad) was 60 and the “Barnyardgrass plant response rating” value (barnyardgrass [12]) was 0.
